Data published in patent publication US20230278972A1, “SUBSTITUTED HALOALKYL SULFONANILIDE HERBICIDES” (FMC Corporation, priority 2020, published 2023).

Assays:
[1] = tested on: rice (Oryza sativa); experiment: Test B flooded paddy test, rice; settings: 336 h, read-out: Plant response rating, Rice
[2] = tested on: kochia (Bassia scoparia); experiment: Test A preemergence, kochia; type: in vivo; settings: Bassia scoparia, pre-emergence, 240 h; Preemergence, 1000 g ai/ha; 0 to 100 scale (0 no effect, 100 complete control); read-out: Plant response rating, Kochia
Procedure, shortened: (§1)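 Formulated with a surfactant in a non-phytotoxic solvent, compounds are applied to loam–sand pots, either to bare soil immediately after seeding (preemergence) or to seedlings of 2 to 10 cm bearing one to two leaves (postemergence).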

[3] = tested on: ragweed (common ragweed, Ambrosia artemisiifolia); experiment: Test A preemergence, ragweed; type: in vivo; settings: Ambrosia artemisiifolia, pre-emergence, 240 h; Preemergence, 1000 g ai/ha; 0 to 100 scale (0 no effect, 100 complete control); read-out: Plant response rating, Ragweed
Procedure, shortened: as §1

[4] = tested on: kochia (Bassia scoparia); experiment: Test A postemergence, kochia; type: in vivo; settings: Bassia scoparia, post-emergence, 240 h; Postemergence, 1000 g ai/ha; visual injury, 0 to 100 scale (0 no effect, 100 complete control), approx. 10 days; read-out: Plant response rating, Kochia
Procedure, shortened: as §1

[5] = tested on: pigweed (Amaranthus retroflexus); experiment: Test A preemergence, pigweed; type: in vivo; settings: Amaranthus retroflexus, pre-emergence, 240 h, 1000 g ai/ha, 0 to 100 scale (0 no effect, 100 complete control), read-out: Plant response rating, Pigweed
Procedure, shortened: (§2)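 Barnyardgrass, wheat and galium were treated postemergence at the one- to two-leaf stage (2 to 10 cm) with chemicals formulated in non-phytotoxic solvent plus surfactant, grown in loam soil–sand pots. Pigweed was sown in the same blend and given a preemergence directed soil spray.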

[6] = tested on: wheat (Triticum aestivum); experiment: Test A postemergence, wheat; type: in vivo; settings: Triticum aestivum, post-emergence, 240 h; Postemergence, 1000 g ai/ha; visual injury, 0 to 100 scale (0 no effect, 100 complete control), approx. 10 days; read-out: Plant response rating, Wheat
Procedure, shortened: as §2

[7] = tested on: blackgrass (Alopecurus myosuroides); experiment: Test A postemergence, blackgrass; type: in vivo; settings: Alopecurus myosuroides, post-emergence, 240 h; Postemergence, 1000 g ai/ha; visual injury, 0 to 100 scale (0 no effect, 100 complete control), approx. 10 days; read-out: Plant response rating, Blackgrass
Procedure, shortened: as §1

[8] = tested on: ducksalad (Heteranthera limosa); experiment: Test B flooded paddy test, ducksalad; settings: 336 h, read-out: Plant response rating, Ducksalad
[9] = tested on: Ryegrass, Italian (Italian ryegrass, Lolium multiflorum); experiment: Test A postemergence, Ryegrass, Italian; type: in vivo; settings: Lolium multiflorum, post-emergence, 240 h; Postemergence, 1000 g ai/ha; visual injury, 0 to 100 scale (0 no effect, 100 complete control), approx. 10 days; read-out: Plant response rating, Ryegrass, Italian
Procedure, shortened: as §1

[10] = tested on: barnyardgrass (Echinochloa crus-galli); experiment: Test A preemergence, barnyardgrass; type: in vivo; settings: Echinochloa crus-galli, pre-emergence, 240 h; Preemergence, 1000 g ai/ha; 0 to 100 scale (0 no effect, 100 complete control); read-out: Plant response rating, Barnyardgrass
Procedure, shortened: as §1

[11] = tested on: Foxtail, Giant (giant foxtail, Setaria faberi); experiment: Test A preemergence, Foxtail, Giant; type: in vivo; settings: Setaria faberi, pre-emergence, 240 h; Preemergence, 1000 g ai/ha; 0 to 100 scale (0 no effect, 100 complete control); read-out: Plant response rating, Foxtail, Giant
Procedure, shortened: as §1

[12] = tested on: barnyardgrass (Echinochloa crus-galli); experiment: Test A postemergence, barnyardgrass; type: in vivo; settings: Echinochloa crus-galli, post-emergence, 240 h; Postemergence, 1000 g ai/ha; visual injury, 0 to 100 scale (0 no effect, 100 complete control), approx. 10 days; read-out: Plant response rating, Barnyardgrass
Procedure, shortened: as §2

[13] = tested on: Foxtail, Giant (giant foxtail, Setaria faberi); experiment: Test A postemergence, Foxtail, Giant; type: in vivo; settings: Setaria faberi, post-emergence, 240 h; Postemergence, 1000 g ai/ha; visual injury, 0 to 100 scale (0 no effect, 100 complete control), approx. 10 days; read-out: Plant response rating, Foxtail, Giant
Procedure, shortened: as §1

[14] = tested on: galium (catchweed bedstraw, Galium aparine); experiment: Test A postemergence, galium; type: in vivo; settings: Galium, post-emergence, 240 h; Postemergence, 1000 g ai/ha; visual injury, 0 to 100 scale (0 no effect, 100 complete control), approx. 10 days; read-out: Plant response rating, Galium
Procedure, shortened: as §2

[15] = tested on: Ryegrass, Italian (Italian ryegrass, Lolium multiflorum); experiment: Test A preemergence, Ryegrass, Italian; type: in vivo; settings: Lolium multiflorum, pre-emergence, 240 h; Preemergence, 1000 g ai/ha; 0 to 100 scale (0 no effect, 100 complete control); read-out: Plant response rating, Ryegrass, Italian
Procedure, shortened: as §1

[16] = tested on: ragweed (common ragweed, Ambrosia artemisiifolia); experiment: Test A postemergence, ragweed; type: in vivo; settings: Ambrosia artemisiifolia, post-emergence, 240 h; Postemergence, 1000 g ai/ha; visual injury, 0 to 100 scale (0 no effect, 100 complete control), approx. 10 days; read-out: Plant response rating, Ragweed
Procedure, shortened: as §1

[17] = tested on: corn (Zea mays); experiment: Test A postemergence, corn; type: in vivo; settings: Zea mays, post-emergence, 240 h; Postemergence, 1000 g ai/ha; visual injury, 0 to 100 scale (0 no effect, 100 complete control), approx. 10 days
Procedure, shortened: as §1

[18] = tested on: barnyardgrass (Echinochloa crus-galli); experiment: Test B flooded paddy test, barnyardgrass; settings: 336 h, read-out: Plant response rating, Barnyardgrass
[19] = tested on: pigweed (Amaranthus retroflexus); experiment: Test A postemergence, pigweed; type: in vivo; settings: Amaranthus retroflexus, post-emergence, 240 h; Postemergence, 1000 g ai/ha; visual injury, 0 to 100 scale (0 no effect, 100 complete control), approx. 10 days; read-out: Plant response rating, Pigweed
Procedure, shortened: as §1

melting point	SMILES	plant injury at 250 g/ha [1]	pest or weed control at 1000 g/ha [2]	pest or weed control at 1000 g/ha [3]	pest or weed control at 1000 g/ha [4]	pest or weed control at 1000 g/ha [5]	plant injury at 1000 g/ha [6]	pest or weed control at 1000 g/ha [7]	pest or weed control at 250 g/ha [8]	pest or weed control at 1000 g/ha [9]	pest or weed control at 1000 g/ha [10]	pest or weed control at 1000 g/ha [11]	pest or weed control at 1000 g/ha [12]	pest or weed control at 1000 g/ha [13]	pest or weed control at 1000 g/ha [14]	pest or weed control at 1000 g/ha [15]	pest or weed control at 1000 g/ha [16]	Corn plant response rating (crop injury, 0 = no effect, 100 = complete kill) at 1000 g/ha [17]	pest or weed control at 250 g/ha [18]	pest or weed control at 1000 g/ha [19]
262 to 266 °C	Cc1cc(C)c(C(=O)N2CCCCC2)cc1NS(=O)(=O)C(F)(F)F [Compound 260, N-[2,4-Dimethyl-5-(1-piperidinylcarbonyl)phenyl]-1,1,1-trifluoromethanesulfonamide]	0%	40%	90%	0%	100%	60%	50%	80%	60%	100%	100%	90%	50%	70%	100%	50%	10%	0%	80%
–	Cc1cc(C)c(C(=O)N2CCOCC2)cc1NS(=O)(=O)C(F)(F)F [Compound 6, N-[2,4-Dimethyl-5-(4-morpholinylcarbonyl)phenyl]-1,1,1-trifluoromethanesulfonamide]	0%	100%	–	80%	100%	60%	60%	0%	80%	100%	100%	90%	90%	90%	100%	50%	60%	0%	100%
